Entries after “also recorded” stand apart in the source; their conditions may differ. Where a SMILES comes first, the peptide text is derived from it. Bridges are numbered along the chain shown (N, C = ends). [ ]: non-standard residue; d: D form. The star is where a group is joined. ξ: configuration not given here. X1 = OC[C@H]1O[C@@H](O[C@H]2[C@H](O)[C@@H](O)[C@H](*)O[C@@H]2CO)[C@H](O)[C@@H](O)[C@H]1O; βGlc = OC[C@H]1O[C@@H](*)[C@H](O)[C@@H](O)[C@@H]1O; d1Nal = N[C@H](Cc1cccc2ccccc12)C(=O)O; ξ1Nal = NC(Cc1cccc2ccccc12)C(=O)O
What was measured:
[1] = test system: delta opioid receptor (DOR); test: Receptor binding, delta opioid receptor (NIMH PDSP); conditions: ratio of DOR-to-MOR binding (Ki)
Description: (§1) Receptor Binding Profiles and Ki: The receptor binding an Ki determinations were generously provided by the National Institute of Mental Health's Psychoactive Drug Screening Program (PDSP), Directed by Bryan L. Roth at the University of North Carolina at Chapel Hill and Project Officer Jamie Driscoll at NIMH, Bethesda MD, USA.

[2] = target: T1, delta opioid receptor (DOR) (Homo sapiens, UniProt P41143); test: as above
T1 construct: NIMH Psychoactive Drug Screening Program (PDSP), University of North Carolina at Chapel Hill (performed the assay)
Description: as §1

mu opioid receptor (MOR) = target: T2, mu opioid receptor (MOR) (Homo sapiens, UniProt P35372); test: Receptor binding, mu opioid receptor (NIMH PDSP); conditions: for MOR affinity, in words: comparison among analogs; for reduction of MOR affinity by glycosylation: relative to unglycosylated reference
T2 construct: NIMH Psychoactive Drug Screening Program (PDSP), University of North Carolina at Chapel Hill (performed the assay)
Description: as §1

[3] = target: T3, kappa opioid receptor (KOR) (Homo sapiens, UniProt P41145); test: Receptor binding, kappa opioid receptor (NIMH PDSP); conditions: for kap/mu: ratio of KOR-to-MOR binding (Ki)
T3 construct: NIMH Psychoactive Drug Screening Program (PDSP), University of North Carolina at Chapel Hill (performed the assay)
Description: as §1

male and female DBA mice = test: Hot plate (HP) antinociception test; conditions: for rank order of potency (ED50), HP: both mg/kg and μmol/kg values; for HP antinociception, in words: s.c., 5 hr test
[4] = test system: male and female CD-1 mice; test: Tail flick (TF) antinociception test; assay type: in vivo; conditions: for rank order of effectiveness, TF AUC: main effects of drug; for rank order of potency (ED50), TF: mg/kg calculations; for TF antinociception AUC: top dose (5.6 mg/kg), mean male and female
Experimental: Tail Flick (TF): CD1 mice were used for this test. The latency to withdraw the tail from a heat source was automatically measured (IITC, Woodland Hills, CA). […] Percent Maximum Possible Effect (% MPE) was determined as [(latency-baseline latency)/(9-baseline latency)]*100.
Statistics/Data Analysis: Data were analyzed with […] PRISM software (GraphPad Software, San Diego CA).

[5] = i.v.; cited from earlier work
male CD-1 mice = test: Conditioned place preference (CPP)
Experimental: Conditioned Place Preference (CPP): Male CD-1 mice were tested for CPP in a modified 2-chamber apparatus (Noldus, Leesburg, VA). The 20×20 cm chambers had distinct visual and tactile cues: 1) vertical striped walls with circular holes in a metal floor or 2) gray walls with clover-shaped holes. […] Eight arenas were counterbalanced for the cue pattern in the left and right chamber. Tests were conducted in 4 phases: habituation (days 1-2, 30′), baseline (day 4-5, 20′), conditioning (days 6-8, 40′), and testing (day 9, 20′). Two sessions per day were conducted at each phase (9:30 and 10:30 am) and animals were placed in the left chamber in session 1 and the right in session 2. For baseline and testing, both chambers were freely accessible. […] These protocols balanced exposure to the chambers, and for conditioning, minimized drug carry-over effects. CPP was determined as the change in time spent on the drug-associated side minus the time spent on that same side during baseline tests.
After two habituation and two baseline sessions, three conditioning days were conducted. […] The following day, a test session was conducted and CPP was determined as the change in time spent on the drug-associated side minus the time spent on that same side during baseline tests.

T1 sequence (P41143 whole entry): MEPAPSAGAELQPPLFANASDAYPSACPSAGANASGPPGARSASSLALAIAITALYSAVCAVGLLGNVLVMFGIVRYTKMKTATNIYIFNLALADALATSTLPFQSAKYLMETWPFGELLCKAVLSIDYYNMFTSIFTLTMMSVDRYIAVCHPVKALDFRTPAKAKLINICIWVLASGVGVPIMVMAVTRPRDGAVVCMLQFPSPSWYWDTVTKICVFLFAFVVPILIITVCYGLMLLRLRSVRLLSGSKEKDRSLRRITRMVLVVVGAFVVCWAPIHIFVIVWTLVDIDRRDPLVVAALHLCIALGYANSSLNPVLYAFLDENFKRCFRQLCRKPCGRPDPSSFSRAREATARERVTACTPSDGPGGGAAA
T2 sequence (P35372 whole entry): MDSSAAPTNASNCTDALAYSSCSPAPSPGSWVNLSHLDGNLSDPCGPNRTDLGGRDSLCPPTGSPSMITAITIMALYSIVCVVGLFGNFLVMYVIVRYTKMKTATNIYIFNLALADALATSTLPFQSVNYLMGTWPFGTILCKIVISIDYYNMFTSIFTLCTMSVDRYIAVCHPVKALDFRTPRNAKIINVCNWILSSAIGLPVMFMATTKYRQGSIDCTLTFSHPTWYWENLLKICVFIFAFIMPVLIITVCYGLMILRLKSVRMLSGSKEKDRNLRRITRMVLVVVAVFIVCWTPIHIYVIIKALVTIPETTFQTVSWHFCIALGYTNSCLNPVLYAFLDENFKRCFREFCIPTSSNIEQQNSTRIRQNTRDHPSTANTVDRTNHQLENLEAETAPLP
T3 sequence (P41145 whole entry): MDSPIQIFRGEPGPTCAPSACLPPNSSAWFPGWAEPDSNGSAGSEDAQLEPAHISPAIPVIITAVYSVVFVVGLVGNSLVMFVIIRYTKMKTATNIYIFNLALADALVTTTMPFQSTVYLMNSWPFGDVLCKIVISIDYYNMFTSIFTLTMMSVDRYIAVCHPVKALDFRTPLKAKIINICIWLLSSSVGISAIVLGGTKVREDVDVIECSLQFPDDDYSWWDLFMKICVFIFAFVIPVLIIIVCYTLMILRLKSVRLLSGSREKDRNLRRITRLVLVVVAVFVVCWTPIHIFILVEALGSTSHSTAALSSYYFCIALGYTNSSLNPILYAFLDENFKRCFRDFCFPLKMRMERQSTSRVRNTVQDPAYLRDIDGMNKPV

| SMILES | del/mu [1] | DOR binding, in words [2] | Ki [2] | KOR binding, in words [3] | kap/mu [3] | MOR affinity, in words (mu opioid receptor (MOR)) | rank order of potency (ED50), HP (male and female DBA mice) | rank order of effectiveness, TF AUC [4] | rank order of potency (ED50), TF [4] | reduction of MOR affinity by glycosylation (mu opioid receptor (MOR)) | HP antinociception, in words (male and female DBA mice) | also measured |
| --- | --- | --- | --- | --- | --- | --- | --- | --- | --- | --- | --- | --- |
| NC(=O)[C@H](CO[C@@H]1O[C@H](CO)[C@@H](O)[C@H](O)[C@H]1O)NC(=O)[C@@H]1CCC(=O)NCCCC[C@@H](NC(=O)[C@@H](N)Cc2ccc(O)cc2)C(=O)N[C@H](Cc2cccc3ccccc23)C(=O)N[C@@H](Cc2ccccc2)C(=O)N1 [Analog A4] (H-Y[dK][d1Nal]FES(βGlc)-NH2; lactam 2-5) | 157 | eliminated delta and kappa binding | ≥ 10000 nM | eliminated delta and kappa binding | 157 | – | – | – | – | – | – | Ki (mu opioid receptor (MOR)): 63.5 nM; additional reduction of MOR binding by D-Nal substitution of Trp at position 3 (mu opioid receptor (MOR)): 11 fold; Ki [3]: ≥ 10000 nM |
| NC(=O)CNC(=O)[C@@H]1CCC(=O)NCCCC[C@@H](NC(=O)[C@@H](N)Cc2ccc(O)cc2)C(=O)N[C@@H](Cc2c[nH]c3ccccc23)C(=O)N[C@@H](Cc2ccccc2)C(=O)N1 [ZH853, reference compound] | – | – | 271 nM | – | – | subnanomolar Ki, showed the highest MOR affinity | A2>A7>A1>ZH853>morphine | A2>A7>A1>morphine>ZH853 | A2>A7>A1>morphine >ZH853 | – | – | time of peak response, TF ([4]; s.c.): 30 to 40 min; TF antinociception AUC [4]: 10000; morphine equivalence [5]: about 1 |
| NC(=O)[C@H](CO[C@@H]1O[C@H](CO)[C@@H](O)[C@H](O)[C@H]1O)NC(=O)[C@@H]1CCC(=O)NCCCC[C@@H](NC(=O)[C@@H](N)Cc2ccc(O)cc2)C(=O)N[C@@H](Cc2c[nH]c3ccccc23)C(=O)N[C@@H](Cc2ccccc2)C(=O)N1 [Analog A1, Tyr-c[D-Lys-Trp-Phe-Glu]-Ser(β-Glc)-NH2] | – | – | – | – | – | – | A2>A7>A1>ZH853>morphine | A2>A7>A1>morphine>ZH853 | A2>A7>A1>morphine >ZH853 | approximately 5 fold | not significantly greater than those of reference compounds | – |
| NC(=O)[C@H](CO[C@@H]1O[C@H](CO)[C@@H](O)[C@H](O)[C@H]1O)NC(=O)[C@@H]1CCC(=O)NCCCC[C@@H](NC(=O)[C@@H](N)Cc2ccc(O)cc2)C(=O)NC(Cc2cccc3ccccc23)C(=O)N[C@@H](Cc2ccccc2)C(=O)N1 (some centres unmarked) [Analog A6] (H-Y[dK][ξ1Nal]FES(βGlc)-NH2; lactam 2-5) | 57 | – | – | increased KOR affinity | 48 | did not reduce MOR affinity | – | – | – | approximately 5 fold | – | MOR selectivity, in words (mu opioid receptor (MOR); versus DOR and KOR): least selective compound |
| CN1CC[C@]23c4c5ccc(O)c4O[C@H]2[C@@H](O)C=C[C@H]3[C@H]1C5 [morphine, reference compound] | – | – | – | – | – | – | A2>A7>A1>ZH853>morphine | – | A2>A7>A1>morphine >ZH853 | – | – | CPP versus vehicle (male CD-1 mice; 3.2 mg/kg, one-way analysis, p<0.01): greater than vehicle; conditioned place preference (CPP) (male CD-1 mice; 3 equiantinociceptive doses, s.c., n=12): produced CPP; TF antinociception (full) ([4]; 10 mg/kg, n=6): 100 % MPE; time of peak response, TF ([4]; s.c.): 20 to 30 min |
| NC(=O)[C@H](CO[C@@H]1O[C@H](CO)[C@@H](O[C@@H]2O[C@H](CO)[C@H](O)[C@H](O)[C@H]2O)[C@H](O)[C@H]1O)NC(=O)[C@@H]1CCC(=O)NCCCC[C@@H](NC(=O)[C@@H](N)Cc2ccc(O)cc2)C(=O)N[C@H](Cc2cccc3ccccc23)C(=O)N[C@@H](Cc2ccccc2)C(=O)N1 [Analog A5] (H-Y[dK][d1Nal]FES(X1)-NH2; lactam 2-5) | 181 | eliminated delta and kappa binding | ≥ 10000 nM | eliminated delta and kappa binding | 181 | – | – | – | – | – | – | Ki (mu opioid receptor (MOR)): 55.2 nM; additional reduction of MOR binding by D-Nal substitution of Trp at position 3 (mu opioid receptor (MOR)): 11 fold; Ki [3]: ≥ 10000 nM |
| NC(=O)[C@H](CO[C@@H]1O[C@H](CO)[C@@H](O[C@@H]2O[C@H](CO)[C@H](O)[C@H](O)[C@H]2O)[C@H](O)[C@H]1O)NC(=O)[C@@H]1CCC(=O)NCCCC[C@@H](NC(=O)[C@@H](N)Cc2ccc(O)cc2)C(=O)N[C@@H](Cc2c[nH]c3ccccc23)C(=O)N[C@@H](Cc2ccccc2)C(=O)N1 [Analog A2, Tyr-c[D-Lys-Trp-Phe-Glu]-Ser(β-Lact)-NH2] | – | – | – | – | – | – | A2>A7>A1>ZH853>morphine | A2>A7>A1>morphine>ZH853 | A2>A7>A1>morphine >ZH853 | approximately 5 fold | robust antinociception; also recorded: significantly greater AUC | TF antinociception (full) ([4]; 1.8 mg/kg): 100 % MPE; dose lower than morphine for equal total TF antinociception, mg/kg basis ([4]; 1.8 mg/kg A2 matched to 10 mg/kg morphine): 5.55 fold; TF antinociception, in words ([4]; s.c., time course and AUC): remained high at the 5-hour limit of the test; TF antinociception AUC [4]: > 25000 |
| NC(=O)[C@H](CO[C@@H]1O[C@H](CO)[C@@H](O)[C@H](O)[C@H]1O)NC(=O)[C@H](CO[C@@H]1O[C@H](CO)[C@@H](O)[C@H](O)[C@H]1O)NC(=O)[C@@H]1CCC(=O)NCCCC[C@@H](NC(=O)[C@@H](N)Cc2ccc(O)cc2)C(=O)N[C@@H](Cc2c[nH]c3ccccc23)C(=O)N[C@@H](Cc2ccccc2)C(=O)N1 [Analog A7, Tyr-c[D-Lys-Trp-Phe-Glu]-Ser(β-Glc)-Ser(β-Glc)-NH2] | – | below detectable levels | – | below detectable levels | – | did not change MOR affinity | A2>A7>A1>ZH853>morphine | A2>A7>A1>morphine>ZH853 | A2>A7>A1>morphine >ZH853 | approximately 5 fold | robust antinociception; also recorded: significantly greater AUC | greater HP effectiveness versus control compounds (AUC) (male and female DBA mice; 1.8 mg/kg vs 5.6 mg/kg for controls): approximately 3 fold |
| NC(=O)[C@H](CO[C@@H]1O[C@H](CO)[C@@H](O)[C@H](O)[C@H]1O)NC(=O)CNC(=O)[C@@H]1CCC(=O)NCCCC[C@@H](NC(=O)[C@@H](N)Cc2ccc(O)cc2)C(=O)N[C@@H](Cc2c[nH]c3ccccc23)C(=O)N[C@@H](Cc2ccccc2)C(=O)N1 [Analog A3] | – | – | ≥ 10000 nM | increased KOR affinity | – | lowest MOR affinity | – | – | – | – | – | – |

Source: patent US20250296958A1, “GL[…] E[…]” (THE ADMINISTRATORS OF THE TULANE EDUCATIONAL FUND, priority 2022, published 2025)
